For assay [1], the target named is T1, cathepsin G (Cath G) (Homo sapiens, UniProt P08311).
T1 construct: purchased Athens Research and Technology, Athens, Ga
T1 sequence (P08311 21-244 limits assumed): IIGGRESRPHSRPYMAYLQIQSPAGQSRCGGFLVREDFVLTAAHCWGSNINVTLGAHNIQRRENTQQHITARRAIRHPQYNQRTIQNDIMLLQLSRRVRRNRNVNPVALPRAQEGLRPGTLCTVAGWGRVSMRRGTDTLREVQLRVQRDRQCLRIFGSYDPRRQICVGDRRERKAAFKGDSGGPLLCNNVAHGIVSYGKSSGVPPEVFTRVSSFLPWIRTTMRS
Description: Inactivation of human leukocyte cathepsin G (kobs/[I]). Type of assay: biochemical. The conditions noted are these: for kinact/KI: pH 7.5. The method, then: Human leukocyte cathepsin G (1.33 uM) is incubated with compound 8 (133 uM) (a) or compound 10 (13.3 uM) (b) in 0.1M HEPES buffer, pH 7.5, and 10% DMSO. Aliquots were withdrawn at different time intervals and assayed for enzymatic activity using methoxysuccinyl Ala-Ala-Pro-Phe p-nitroanilide.
Human leukocyte cathepsin G (1.48 μM was incubated with inhibitor 5A (1.48 μM in 0.1M HEPES buffer, pH 7.5, and 1% DMSO. Aliquots were withdrawn at different time intervals and assayed for enzymatic activity using methoxysuccinyl Ala-Ala-Pro-Phe p-nitroanilide.
(§1) An in vitro assay can be used to screen compounds of the invention for the ability to reduce or inhibit serine proteinase activity. The human leukocyte elastase (HLE), cathepsin G (Cath G), and proteinase-3 assays have each been described (Groutas et al., J. Med. Chem. 32:1607-1611, 1989; Groutas et al., Arch. Biochem. Biophys. 294:144-146, 1992; Kao et al., J. Clin. Invest. 82:1963-1973, 1988, each incorporated by reference herein). The pseudo first-order inactivation rate constants (kobs) were obtained from plots of ln(vt /vo) vs t, and expressed in terms of the apparent second-order inactivation rate constant, kobs /[I] M^-1 s^-1 (Tables 1-7). Tables 1-7 disclose the activity of preferred compounds of the invention as inhibitors of HLE and Cath G. Table 7 discloses the activity of Compounds 4A (C) and 3E (D) as inhibitors of Proteinase-3 activity. Compounds (A) and (B) have been disclosed previously (Groutas et al., Bioorganic and Med. Chem. 1(4):273-277, 1993; Groutas et al., J. Med. Chem. 36:3178, 1993).
(§2) Human leukocyte cathepsin G was obtained from Athens Research and Technology, Athens, Ga. Methoxysuccinyl Ala-Ala-Pro-Val p-nitroanilide and methoxysuccinyl Ala-Ala-Pro-Phe p-nitroanilide were purchased from Sigma Chemicals Co., St. Louis, Mo. Baker-analyzed 60-200 mesh silica gel was used for flash chromatography.

Assay [2] concerns the target T2, human leukocyte elastase (HLE) (Homo sapiens, UniProt P08246).
T2 construct: purchased Elastin Products Co., Owensville, Mo
T2 sequence (P08246 30-247 limits assumed): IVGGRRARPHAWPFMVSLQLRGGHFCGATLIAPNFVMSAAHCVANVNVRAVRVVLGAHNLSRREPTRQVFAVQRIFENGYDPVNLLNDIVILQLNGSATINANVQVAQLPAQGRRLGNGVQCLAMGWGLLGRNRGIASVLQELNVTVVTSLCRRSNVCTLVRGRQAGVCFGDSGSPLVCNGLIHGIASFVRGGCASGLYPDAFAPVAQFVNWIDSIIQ
Description: Inactivation of human leukocyte elastase (kobs/[I]). Type of assay: biochemical.
From the text: as §1
XII. Materials: Human leukocyte elastase was purchased from Elastin Products Co., Owensville, Mo.
as §2

The structures appear in SMILES notation.

Turning to `O=C1[C@H](Cc2ccccc2)NS(=O)(=O)N1CF` [Compound 1A, (S)-4-Benzyl-2-fluoromethyl-3-oxo-1,2,5-thiadiazolidine 1.1-dioxide], the kinact/KI in assay [1] (Table 2) amounted to 600 M⁻¹ s⁻¹. Regarding `O=C(N[C@@H](Cc1ccccc1)C(=O)OCN1C(=O)C(Cc2ccccc2)CS1(=O)=O)OCc1ccccc1` (stereo partly drawn) [Compound 1B], the inactivation efficiency (kinact/KI) in assay [2] (Table 3) worked out at 110 M⁻¹ s⁻¹; in assay [1] (Table 3) it was 20 M⁻¹ s⁻¹.

With `O=C(/C=C/c1ccccc1)OCN1C(=O)C(Cc2ccccc2)CS1(=O)=O` (stereo not drawn) [Compound 1C], the kinact/KI in assay [2] (Table 4) is 280 M⁻¹ s⁻¹; in assay [1] (Table 4), 3220 M⁻¹ s⁻¹. For the compound `O=C1C(Cc2ccccc2)CS(=O)(=O)N1CF` (stereo not drawn) [Compound 1D, 4-benzyl-2-(fluoromethyl)isothiazolidin-3-one 1,1 dioxide], the kinact/KI in assay [2] (Table 5) turned out to be 160 M⁻¹ s⁻¹; in assay [1] (Table 5), 2700 M⁻¹ s⁻¹. Take `O=C1[C@H](Cc2ccccc2)N(S(=O)(=O)c2ccccc2)S(=O)(=O)N1CS(=O)(=O)c1ccccc1` [Compound 1E]: the kinact/KI in assay [1] (Table 6) is 830 M⁻¹ s⁻¹. Consider `CC(C)Cc1ccc(C(C)C(=O)OCN2C(=O)C(Cc3ccccc3)CS2(=O)=O)cc1` (stereo not drawn) [Compound 1], for which the figures for the kinact/KI in assay [2] (Table 1A) and in assay [1] (Table 1A) were 160 M⁻¹ s⁻¹ and 240 M⁻¹ s⁻¹, respectively. As for `CN1[C@@H](Cc2ccccc2)C(=O)N(CF)S1(=O)=O` [Compound 2A, (S)-4-Benzyl-2-fluoromethyl-5-methyl-3-oxo-1,2,5-thiadiazolidine 1.1-dioxide], the second-order inactivation constant (kinact/KI) is 1320 M⁻¹ s⁻¹ in assay [2] (Table 2) and 750 M⁻¹ s⁻¹ in assay [1] (Table 2).

On to `CC(C)(C)OC(=O)N[C@@H](Cc1ccccc1)C(=O)OCN1C(=O)C(Cc2ccccc2)CS1(=O)=O` (stereo partly drawn) [Compound 2B], for which the figures for the kinact/KI in assay [2] (Table 3) and in assay [1] (Table 3) were 680 M⁻¹ s⁻¹ and 10 M⁻¹ s⁻¹, respectively.

`O=C(CCc1ccccc1)OCN1C(=O)C(Cc2ccccc2)CS1(=O)=O` (stereo not drawn) [Compound 2C]: the inactivation efficiency (kinact/KI) came out at 680 M⁻¹ s⁻¹ in assay [2] (Table 4) and 640 M⁻¹ s⁻¹ in assay [1] (Table 4). For the compound `O=C1C(Cc2ccccc2)CS(=O)(=O)N1CCl` (stereo not drawn) [Compound 2D], the kinact/KI in assay [2] (Table 5) came to 670 M⁻¹ s⁻¹; in assay [1] (Table 5), 2040 M⁻¹ s⁻¹. Turning to `CC(C)C[C@@H]1NS(=O)(=O)N(CS(=O)(=O)c2ccccc2)C1=O` [Compound 2E], in assay [2] (Table 6), the kinact/KI was found to be 190 M⁻¹ s⁻¹. On to `O=C(Cc1ccccc1Nc1c(Cl)cccc1Cl)OCN1C(=O)C(Cc2ccccc2)CS1(=O)=O` (stereo not drawn) [Compound 2], for which the kinact/KI in assay [2] (Table 1A) was 30 M⁻¹ s⁻¹; in assay [1] (Table 1A), 80 M⁻¹ s⁻¹.

Turning to `O=C1[C@H](Cc2ccccc2)N(Cc2ccccc2)S(=O)(=O)N1CF` [Compound 3A, (S)-4.5-Dibenzyl-2-fluoromethyl-3-oxo-1,2,5-thiadiazolidine 1.1-dioxide], the kinact/KI in assay [2] (Table 2) was 930 M⁻¹ s⁻¹.

Consider `O=C(N[C@H](Cc1ccccc1)C(=O)OCN1C(=O)C(Cc2ccccc2)CS1(=O)=O)OCc1ccccc1` (stereo partly drawn) [Compound 3B], for which the kinact/KI turned out to be 2300 M⁻¹ s⁻¹ in assay [2] (Table 3) and 160 M⁻¹ s⁻¹ in assay [1] (Table 3). For the compound `O=C(CSc1ccccc1)OCN1C(=O)C(Cc2ccccc2)CS1(=O)=O` (stereo not drawn) [Compound 3C], the kinact/KI in assay [2] (Table 4) came out at 1020 M⁻¹ s⁻¹; in assay [1] (Table 4), 3340 M⁻¹ s⁻¹. As to `CC(C(=O)OCN1C(=O)C(Cc2ccccc2)CS1(=O)=O)c1cccc(C(=O)c2ccccc2)c1` (stereo not drawn) [Compound 3], the values for the kinact/KI in assay [2] (Table 1A) and in assay [1] (Table 1A) were 210 M⁻¹ s⁻¹ and 290 M⁻¹ s⁻¹, respectively. Take `CC(C)(C)OC(=O)N[C@H](Cc1ccccc1)C(=O)OCN1C(=O)C(Cc2ccccc2)CS1(=O)=O` (stereo partly drawn) [Compound 4B]: the kinact/KI in assay [2] (Table 3) worked out at 1140 M⁻¹ s⁻¹; in assay [1] (Table 3), 260 M⁻¹ s⁻¹.

In the case of `O=C(C[S+]([O-])c1ccccc1)OCN1C(=O)C(Cc2ccccc2)CS1(=O)=O` (stereo not drawn) [Compound 4C], the kinact/KI in assay [2] (Table 4) came out at 320 M⁻¹ s⁻¹; in assay [1] (Table 4), 770 M⁻¹ s⁻¹. Consider `CC(C)C[C@H]1C(=O)N(CS(=O)(=O)c2ccccc2)S(=O)(=O)N1CC(=O)OCc1ccccc1` [Compound 4E], for which the kinact/KI in assay [2] (Table 6) was found to be 1710 M⁻¹ s⁻¹. In the case of `CC(=O)Oc1ccccc1C(=O)OCN1C(=O)C(Cc2ccccc2)CS1(=O)=O` (stereo not drawn) [Compound 4], the kinact/KI in assay [2] (Table 1A) came out at 830 M⁻¹ s⁻¹; in assay [1] (Table 1A), 3000 M⁻¹ s⁻¹. Turning to `O=C(CN1[C@@H](Cc2ccccc2)C(=O)N(CF)S1(=O)=O)OCc1ccccc1` [Compound 5A, (S) -Benzyl-5(benzyloxycarbonylmethyl)-2-fluoromethyl-3-oxo-1,2,5-thiadiazolidine 1.1-dioxide], in assay [2] (Table 2), the kinact/KI is 810 M⁻¹ s⁻¹. Also, the “time-dependent loss of serine protease activity” value in assay [1] (FIG. 6, Cath G 1.48 μM, inhibitor 1.48 μM, 0.1M HEPES pH 7.5, 1% DMSO) was “time-dependent loss of serine protease activity”. Consider `O=C(OCN1C(=O)C(Cc2ccccc2)CS1(=O)=O)[C@@H]1CCCN1C(=O)OCc1ccccc1` (stereo partly drawn) [Compound 5B], for which the kinact/KI in assay [2] (Table 3) was 220 M⁻¹ s⁻¹; in assay [1] (Table 3), 7700 M⁻¹ s⁻¹. For `O=C(CS(=O)(=O)c1ccccc1)OCN1C(=O)C(Cc2ccccc2)CS1(=O)=O` (stereo not drawn) [Compound 5C], the kinact/KI in assay [2] (Table 4) stood at 340 M⁻¹ s⁻¹; in assay [1] (Table 4), 1050 M⁻¹ s⁻¹. Regarding `CC(C)C[C@H]1C(=O)N(CS(=O)(=O)c2ccccc2)S(=O)(=O)N1CC(=O)OC(C)(C)C` [Compound 5E], in assay [2] (Table 6), the kinact/KI came out at 2020 M⁻¹ s⁻¹. `Nc1ccc(O)c(C(=O)OCN2C(=O)C(Cc3ccccc3)CS2(=O)=O)c1` (stereo not drawn) [Compound 5]: the figures for the kinact/KI in assay [2] (Table 1A) and in assay [1] (Table 1A) were 470 M⁻¹ s⁻¹ and 3330 M⁻¹ s⁻¹, respectively. Regarding `CC(C)(C)OC(=O)N1CCC[C@H]1C(=O)OCN1C(=O)C(Cc2ccccc2)CS1(=O)=O` (stereo partly drawn) [Compound 6B], the values for the kinact/KI in assay [2] (Table 3) and in assay [1] (Table 3) were 170 M⁻¹ s⁻¹ and 590 M⁻¹ s⁻¹, respectively. Regarding `O=C(/C=C\Sc1ccccc1)OCN1C(=O)C(Cc2ccccc2)CS1(=O)=O` (stereo not drawn) [Compound 6C], the inactivation efficiency (kinact/KI) in assay [2] (Table 4) was determined as 170 M⁻¹ s⁻¹; in assay [1] (Table 4) it was 7270 M⁻¹ s⁻¹. Turning to `O=C1C(Cc2ccccc2)CS(=O)(=O)N1C(CF)Sc1ccccc1` (stereo not drawn) [Compound 7, 4-Benzyl-2-(2-fluoro-1-phenylthioethyl) isothiazolidin-3-one 1,1-dioxide], in assay [2] (Table 1B footnote, [I]/[E] ratio of 200, 10 minute incubation period), the HLE % inhibition was found to be 24%. Besides, the kinact/KI in assay [1] (Table 1B) was 40 M⁻¹ s⁻¹. `O=C(OCN1C(=O)C(Cc2ccccc2)CS1(=O)=O)[C@H]1CCCN1C(=O)OCc1ccccc1` (stereo partly drawn) [Compound 7B]: the kinact/KI in assay [2] (Table 3) worked out at 520 M⁻¹ s⁻¹; in assay [1] (Table 3), 360 M⁻¹ s⁻¹.

For the compound `O=C(/C=C/Sc1ccccc1)OCN1C(=O)C(Cc2ccccc2)CS1(=O)=O` (stereo not drawn) [Compound 7C], the figures for the kinact/KI in assay [2] (Table 4) and in assay [1] (Table 4) were 240 M⁻¹ s⁻¹ and 5520 M⁻¹ s⁻¹, respectively. In the case of `O=C1[C@H](Cc2ccccc2)NS(=O)(=O)N1CCl` [Compound 8E], the kinact/KI in assay [1] (Table 6) amounted to 30 M⁻¹ s⁻¹. Still for that read-out and setting: to `O=C1[C@H](Cc2ccccc2)NS(=O)(=O)N1CS(=O)(=O)c1ccccc1` [Compound 10E] belongs 30 M⁻¹ s⁻¹. On the same count and under the same terms, to `CN1[C@@H](Cc2ccccc2)C(=O)N(CS(=O)(=O)c2ccccc2)S1(=O)=O` [Compound 11E] belongs 130 M⁻¹ s⁻¹; to `CCCCN1[C@@H](Cc2ccccc2)C(=O)N(CS(=O)(=O)c2ccccc2)S1(=O)=O` [Compound 12E], 320 M⁻¹ s⁻¹. On to `O=C1C(Cc2ccccc2)CS(=O)(=O)N1C[S+]([O-])c1ccccc1` (stereo not drawn) [Compound 13D], for which, in assay [1] (Table 5), the kinact/KI worked out at 590 M⁻¹ s⁻¹. As for `O=C1C(Cc2ccccc2)CS(=O)(=O)N1CS(=O)(=O)c1ccccc1` (stereo not drawn) [Compound 14D], in assay [1] (Table 5), the “Cath G kobs/[I]” value amounted to 960 M⁻¹ s⁻¹. Consider `CC(C)(C)OC(=O)CN1[C@@H](Cc2ccccc2)C(=O)N(CS(=O)(=O)c2ccccc2)S1(=O)=O` [Compound 14E], for which the kinact/KI in assay [1] (Table 6) came to 1130 M⁻¹ s⁻¹. For `CS(=O)(=O)CN1C(=O)C(Cc2ccccc2)CS1(=O)=O` (stereo not drawn) [Compound 15D], the kinact/KI in assay [1] (Table 5) was found to be 2080 M⁻¹ s⁻¹. In the case of `O=C1[C@H](Cc2ccccc2)N(C/C=C/c2ccccc2)S(=O)(=O)N1CS(=O)(=O)c1ccccc1` [Compound 15E], the kinact/KI in assay [1] (Table 6) is 760 M⁻¹ s⁻¹. As for `CCCCN1[C@@H](CC(C)C)C(=O)N(CS(=O)(=O)c2ccccc2)S1(=O)=O` [Compound 16E], the kinact/KI in assay [2] (Table 6) amounted to 10600 M⁻¹ s⁻¹. In the case of `CC(C)C[C@H]1C(=O)N(CS(=O)(=O)c2ccccc2)S(=O)(=O)N1Cc1ccccc1` [Compound 17E], the kinact/KI in assay [1] (Table 6) was found to be 440 M⁻¹ s⁻¹. With `CC(C)C[C@H]1C(=O)N(CS(C)(=O)=O)S(=O)(=O)N1C` [Compound 18E], the kinact/KI in assay [2] (Table 6) turned out to be 4590 M⁻¹ s⁻¹.

Broadly, the kinact/KI is the second-order rate constant of inactivation.

For the origin of these results see US5550139A, “Serine protease inhibitors” (The Wichita State University, priority 1994, dated 1996).
